Usually EC50 stands for the concentration that produces a half-maximal response.

In one experiment the target is T1, Solute carrier family 12 member 5 (Homo sapiens, UniProt Q9H2X9).
T1 sequence (Q9H2X9 whole entry): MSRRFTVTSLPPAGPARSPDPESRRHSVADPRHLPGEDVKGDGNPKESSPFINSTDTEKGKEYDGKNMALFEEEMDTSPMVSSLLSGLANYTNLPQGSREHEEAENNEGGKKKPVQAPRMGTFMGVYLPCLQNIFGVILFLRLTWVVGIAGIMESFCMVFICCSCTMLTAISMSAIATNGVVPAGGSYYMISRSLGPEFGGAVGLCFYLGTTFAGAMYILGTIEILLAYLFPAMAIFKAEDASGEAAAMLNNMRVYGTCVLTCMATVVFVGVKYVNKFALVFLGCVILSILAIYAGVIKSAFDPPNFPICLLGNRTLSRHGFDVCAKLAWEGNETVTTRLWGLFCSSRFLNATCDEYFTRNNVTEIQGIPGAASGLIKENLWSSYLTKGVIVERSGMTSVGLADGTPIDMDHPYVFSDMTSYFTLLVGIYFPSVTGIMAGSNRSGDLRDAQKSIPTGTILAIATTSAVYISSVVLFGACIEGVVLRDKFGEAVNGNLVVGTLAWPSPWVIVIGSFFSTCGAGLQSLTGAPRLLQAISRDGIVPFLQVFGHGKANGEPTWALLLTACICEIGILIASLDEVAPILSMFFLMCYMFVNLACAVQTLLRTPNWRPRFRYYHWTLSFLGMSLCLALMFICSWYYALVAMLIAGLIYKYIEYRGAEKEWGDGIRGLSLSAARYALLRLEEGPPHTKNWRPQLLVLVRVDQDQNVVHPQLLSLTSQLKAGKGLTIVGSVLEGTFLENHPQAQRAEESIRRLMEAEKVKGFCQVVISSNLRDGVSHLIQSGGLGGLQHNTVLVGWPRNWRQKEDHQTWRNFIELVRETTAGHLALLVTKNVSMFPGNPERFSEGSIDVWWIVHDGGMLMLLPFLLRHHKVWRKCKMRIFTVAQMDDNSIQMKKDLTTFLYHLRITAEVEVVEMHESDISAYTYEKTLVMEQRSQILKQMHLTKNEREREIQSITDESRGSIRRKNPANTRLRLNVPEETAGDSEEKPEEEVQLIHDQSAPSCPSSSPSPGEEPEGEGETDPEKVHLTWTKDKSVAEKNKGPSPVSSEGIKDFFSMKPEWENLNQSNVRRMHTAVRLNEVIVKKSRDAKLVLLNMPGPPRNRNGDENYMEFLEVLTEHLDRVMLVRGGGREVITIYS
In words: concentration-response of KCC2 transport modulators – cell-based, HEK293 KCC2, FluoZin-2 fluorescence, dose response (AID 1736).
Details: not given
With `CC(C)CCNC(=O)COC(=O)/C=C/c1ccc2ccccc2n1` [(E)-3-(2-quinolinyl)-2-propenoic acid [2-(3-methylbutylamino)-2-oxoethyl] ester], it took 2.3 µM to reach a half-maximal effect (EC50). Same read-out and setting: the same measure for `CC1Cc2ccccc2N1C(=O)/C=C/c1cccc(F)c1` (configuration not stated) [(E)-3-(3-fluorophenyl)-1-(2-methyl-2,3-dihydroindol-1-yl)-2-propen-1-one]: 192 µM.

`COc1ccc(-c2nnc(S/C(=C/c3ccc(Cl)cc3)C(=O)O)o2)cc1` [(E)-3-(4-chlorophenyl)-2-[[5-(4-methoxyphenyl)-1,3,4-oxadiazol-2-yl]sulfanyl]prop-2-enoic acid] showed an EC50 of 0.388 µM. Against the preceding compound, the EC50 is about 490-fold lower.

`O=C(O)/C=C/c1cn(Cc2ccccc2Cl)nc1-c1ccccc1` [(E)-3-[1-(2-chlorobenzyl)-3-phenyl-pyrazol-4-yl]acrylic acid] had an EC50 of 0.409 µM. The same measure, in the same setting: to `O=C(O)CC/C(=C\c1ccccc1[N+](=O)[O-])c1nc2ccccc2s1` [(E)-4-(1,3-benzothiazol-2-yl)-5-(2-nitrophenyl)-4-pentenoic acid] belongs 350 µM. The same measure, in the same setting: the same measure for `O=C(O)CC/C(=C\c1ccc(N2CCCC2)c([N+](=O)[O-])c1)c1nc2ccccc2s1` [(E)-4-(1,3-benzothiazol-2-yl)-5-(3-nitro-4-pyrrolidin-1-yl-phenyl)pent-4-enoic acid]: 233 µM. The compound `O=C(O)CC/C(=C\c1ccc(N2CCOCC2)c([N+](=O)[O-])c1)c1nc2ccccc2s1` [(E)-4-(1,3-benzothiazol-2-yl)-5-(4-morpholin-4-yl-3-nitro-phenyl)pent-4-enoic acid] displayed an EC50 of 12.2 µM. Same read-out and setting: to `COc1ccccc1N1CCN(C(=S)NC(=O)/C=C/c2ccccc2)CC1` [(E)-N-[4-(2-Methoxy-phenyl)-piperazine-1-carbothioyl]-3-phenyl-acrylamide] belongs 11.9 µM; to `CC[C@H](CO)Nc1nc(Nc2cccc(Cl)c2)c2ncn(C(C)C)c2n1` [(R)-2-(6-(3-chlorophenylamino)-9-isopropyl-9H-purin-2-ylamino)butan-1-ol], 10.6 µM; to `O=C(CNC(=O)/C(=C/c1ccccc1)NC(=O)c1ccc(Br)cc1)OCc1ccccc1` [(phenylmethyl) 2-[[(Z)-2-[(4-bromophenyl)carbonylamino]-3-phenyl-prop-2-enoyl]amino]ethanoate], 2 µM. The same measure, in the same setting: to `Cc1ccc2c(c1)nnn2C1CCN(S(=O)(=O)c2cccc(S(=O)(=O)N(C)C)c2)CC1` [MLS000033642] belongs 6.91 µM. Still for that read-out and setting: the same measure for `O=C(CSc1ncccc1-c1nc2ccccc2[nH]1)N1CCN(c2ccccc2F)CC1` [MLS000033700]: 26.5 µM; for `O=C(OC1CCc2ccccc2C1=O)c1ccccc1O` (configuration not stated) [MLS000051417]: 26.5 µM. `Cc1nn(-c2nc3ccccc3[nH]2)c(N)c1-c1ccccc1` [MLS000063763]: the 50% effective concentration (EC50) is 24.4 µM. Same read-out and setting: the same measure for `Cc1nonc1NC(=O)CSc1ccc(-c2ccccc2)nn1` [MLS000074514]: 1.56 µM. For the compound `O=C(NCc1cccs1)c1nc2c(nnn2Cc2ccc(F)cc2)c(=O)[nH]1` [MLS000074753], the response was half-maximal at 41100 µM (EC50). `CS(=O)(=O)N(CC(=O)N1CCN(c2ccccc2)CC1)c1cccc(Br)c1` [MLS000110474] had an EC50 of 3.74 µM.

Take `Cn1c(C(=O)NCCCN2CCN(c3ccccc3F)CC2)cc2c(=O)n(C)c3ccccc3c21` [MLS000118127]: the EC50 is 4.93 µM. This EC50 and that of the compound before are within 1.5-fold of each other.

With `Cn1c(C(=O)NCCN2CCN(c3ccccc3F)CC2)cc2c(=O)n(C)c3ccccc3c21` [MLS000118132], the EC50 was determined as 1.74 µM.

In the case of `CCN(CC)S(=O)(=O)c1ccc(NC(=O)CSc2ncnc3ccccc23)cc1` [MLS000393282], a half-maximal response (EC50) required 3 µM. Still for that read-out and setting: to `CC1Cc2ccccc2N1C(=O)CN(C)S(=O)(=O)c1cccc2cccnc12` (configuration not stated) [MLS000523063] belongs 17.5 µM; to `CS(=O)(=O)N(CC(=O)N1CCN(c2ccc(F)cc2)CC1)c1ccc(F)c(Cl)c1` [MLS000531433], 20.6 µM; to `Cc1ccc(C(=O)Nc2nc(=O)n(C(=O)c3ccccc3Cl)s2)cc1` [MLS000540480], 3 µM. Same read-out and setting: to `O=C(NNc1nc(-c2ccccc2)cs1)c1ccccc1` [MLS000547345] belongs 0.0106 µM; to `CCn1c(CCNC(=O)c2cccs2)nnc1SCC(=O)Nc1nc(-c2ccccc2)cs1` [MLS000548611], 19.1 µM; to `O=[N+]([O-])c1ccccc1C=C[CH+][N-]n1c(-c2ccc(Cl)cc2)n[nH]c1=S` [MLS000555506], 15.5 µM. On the same count and under the same terms, to `O=C(CC(Cc1ccccc1)c1ccco1)NC1CCCCC1` (configuration not stated) [MLS000556612] belongs 3.03 µM; to `CC(=NNC(=O)c1ccc(Br)cc1)c1ccccc1` [MLS000558629], 2 µM; to `Cc1nn2c(nc(O)c3ccccc32)c1C=O` [MLS000565386], 20.6 µM.

With `Cc1nn(-c2ccc(F)cc2)c(C)c1NS(=O)(=O)c1ccc2ccccc2c1` [MLS000565745], a half-maximal effect (EC50) was put at 2.64 µM. Compared with the last compound, the EC50 is about 7.8-fold lower.

As to `CNC(=O)/C(=C\C=C\c1ccccc1)NC(=O)c1ccc([N+](=O)[O-])cc1` [MLS000570424], the midpoint of the response, the EC50, lay at 3.38 µM. The same measure, in the same setting: to `CCn1c(SCC(=O)Nc2ccc(Cl)cc2)nc2nc3c(cc2c1=O)CCCC3` [MLS000589154] belongs 45.5 µM; to `O=C(CSc1ccc(-c2cccs2)nn1)Nc1ccccc1F` [MLS000621184], 1.68 µM.

With `O=C(C=Cc1ccccc1)CC(=O)c1ccccc1O` [MLS000627068], a half-maximal response (EC50) required 10 µM. The same measure, in the same setting: to `O=C(NCc1nc(-c2ccccc2)cs1)c1ccccc1` [MLS000661971] belongs 544 µM. The same measure, in the same setting: the same measure for `CN(CC(=O)N1CCN(Cc2ccccc2)CC1)S(=O)(=O)c1cccc2nsnc12` [MLS000674627]: 0.27 µM; for `O=C(NC(=S)Nc1cccc2cccnc12)c1cccs1` [MLS000688132]: 0.156 µM; for `O=C(Nc1ccc2oc(-c3ccccc3F)nc2c1)c1ccco1` [MLS000709180]: 827 µM. Same read-out and setting: to `O=C(NC1CCCC1)C(c1ccncc1)N(Cc1ccco1)C(=O)c1ccc(-c2ccccc2)[nH]1` (configuration not stated) [MLS000718066] belongs 8.13 µM; to `CC(=O)NCC1CCCN(c2nc3nonc3nc2N(C)Cc2ccccc2)C1` (configuration not stated) [MLS000731683], 5.1 µM.

Still in this experiment, the particulars now being: inactive by the depositor's call.
`N#C/C(=C\c1cn(-c2ccccc2)nc1-c1cccnc1)c1nnc2n1CCCCC2` [(E)-3-(1-phenyl-3-pyridin-3-yl-pyrazol-4-yl)-2-(6,7,8,9-tetrahydro-5H-[1,2,4]triazolo[4,3-a]azepin-3-yl)prop-2-enenitrile] showed an EC50 of 1.45 µM. That is a single-digit micromolar value. Still for that read-out and setting: to `O=C(NC(=S)NNC(=O)c1ccccc1O)c1ccco1` [Furan-2-carboxylic acid [N'-(2-hydroxy-benzoyl)-hydrazinocarbothioyl]-amide] belongs 303 µM; to `O=C(NCCCCc1ccccc1)C1CC(c2ccccc2C(F)(F)F)=NO1` (configuration not stated) [MLS000561910], 40.9 µM. Still for that read-out and setting: to `C[C@@H](C(=O)Nc1ccc2ccccc2c1)[C@@H]1C[C@@]1(C)[C@@H](NC(=O)c1cccnc1)c1ccccc1` [MLS000563527] belongs 16.9 µM; to `CCOC(=S)N=C(NS(=O)(=O)c1ccc(C)cc1)c1ccccc1` [MLS000579749], 24.9 µM; to `O=C(CCc1ccccc1)NC(=S)Nc1cccc(Br)c1` [MLS000583293], 296 µM.

For the compound `O=C(Nc1cc(S(=O)(=O)N2CCCCC2)ccc1Cl)c1ccccc1NS(=O)(=O)c1ccc(F)cc1` [MLS000707627], the EC50 was 101 µM.

Values taken from BindingDB's records for doi:10.7270/Q2M32T6M (Vanderbilt Screening Center for GPCRs, Ion Channels and …, 2009).
